Test systems include SK-MEL-28; CAKI-1; COLO 205; HOP-62; K562; SNB-75; UO-31; A549; RPMI-8226; EKVX; HOP-92; ACHN; SR.
Holding throughout (assay): NCI anticancer screen, dose series, 48 h

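Where inhibition never reached the appropriate level, the endpoint shown equals the highest concentration tested. Otherwise, values were interpolated linearly from a five-concentration, 48-hour dose response in 96-well plates. GI50 = concentration required for 50% inhibition of growth.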 The source made the active and inactive calls. Rule as the data show it: active = GI50 up to about 1.1 µM and inactive = higher. Bounds are passed on as bounds.

As to `NC(=O)c1ccc([N+](=O)[O-])cc1`, the GI50 with SK-MEL-28, with CAKI-1, with COLO 205, with HOP-62, in the assay with K562 and in the assay on SNB-75 was > 100 µM (inactive) in each case. The GI50 in the assay on UO-31, in the assay on A549, in the assay with RPMI-8226 and with EKVX was > 100 µM (inactive) each time.

As to `Cn1nc(-c2ccccc2)c(C(=O)/C=C/c2ccc(F)cc2)c(N2CCCC2)c1=O`, the GI50 with SK-MEL-28 is 16 µM (inactive); with HOP-92, 13.9 µM (inactive); with CAKI-1, 12.2 µM (inactive); with COLO 205, 15.1 µM (inactive); in the assay with K562, 7.82 µM (inactive); with UO-31, > 10 µM (inactive). Further, the GI50 in the assay with A549 was 15.1 µM (inactive); in the assay with ACHN it was 24.1 µM (inactive); with RPMI-8226, 6.62 µM (inactive); in the assay on EKVX, 19.2 µM (inactive).

As for `COCCN1C2=CCCCC2=Nc2c(N)nc(N)nc21`, the GI50 with SK-MEL-28, in the assay on HOP-92, with CAKI-1, with COLO 205, in the assay with HOP-62 and in the assay with K562 was > 100 µM (inactive) in each case. Also, the GI50 with SNB-75, in the assay with SR, in the assay on UO-31, with A549, with ACHN and in the assay with RPMI-8226 was > 100 µM (inactive) throughout.

On to `COc1ccc(OC)c(NC(=O)C(=O)NNC(=O)c2sc(NNC(C)=O)nc2C)c1`, for which the GI50 is 61.2 µM (inactive) with SK-MEL-28; 8.69 µM (inactive) in the assay on HOP-92; 41.3 µM (inactive) in the assay with CAKI-1; 92.9 µM (inactive) in the assay on HOP-62; 17.1 µM (inactive) in the assay with K562; 32.1 µM (inactive) with SR. Besides, the GI50 in the assay with UO-31 was 45.4 µM (inactive); in the assay with A549, 31.2 µM (inactive); in the assay with ACHN, 29.2 µM (inactive); in the assay with RPMI-8226, 30.3 µM (inactive); in the assay on EKVX, 37.5 µM (inactive).

In the case of `CC#CC1C2CCCC1(CSc1ccccc1)NC(=O)O2` (stereo not drawn), the GI50 in the assay with HOP-92, in the assay on CAKI-1, in the assay with COLO 205, with HOP-62, in the assay with K562 and in the assay on SNB-75 was > 100 µM (inactive) throughout. Besides, the GI50 in the assay with SR is > 100 µM (inactive); in the assay with UO-31 it was > 100 µM (inactive); with A549 it was > 100 µM (inactive); in the assay on ACHN it was > 100 µM (inactive); in the assay with RPMI-8226, 63.8 µM (inactive); in the assay with EKVX, > 100 µM (inactive).

Regarding `C=C1C(=O)OC2/C=C(\C)C3OC3/C=C(/C(=O)OC)C(O)C(OC(=O)C3(C)OC3C)C12` (stereo not drawn), the GI50 is 1.52 µM (inactive) in the assay on SK-MEL-28; 2.86 µM (inactive) with HOP-92; 1.08 µM (active) in the assay with CAKI-1; 1.27 µM (inactive) in the assay on COLO 205; 17.7 µM (inactive) with HOP-62; 0.685 µM (active) with K562. The GI50 with SNB-75 was 13.5 µM (inactive); in the assay with SR, 0.566 µM (active); in the assay on UO-31, 11.2 µM (inactive); in the assay on A549 it was 15.3 µM (inactive); with ACHN, 3.14 µM (inactive); in the assay with EKVX, 2.58 µM (inactive).

For `O=C(c1ccc(Cl)cc1Cl)N(/N=C/C=C/c1ccccc1)c1nnc(-c2ccccc2)c(-c2ccccc2)n1`, the GI50 was > 100 µM (inactive) in the assay on SK-MEL-28; > 100 µM (inactive) in the assay on COLO 205; > 100 µM (inactive) in the assay with HOP-62; > 100 µM (inactive) in the assay on K562; > 100 µM (inactive) in the assay with SNB-75; 76.4 µM (inactive) in the assay on UO-31. Further, the GI50 with A549 is > 100 µM (inactive); in the assay with ACHN, > 100 µM (inactive); in the assay on RPMI-8226, 37.5 µM (inactive); with EKVX it was > 100 µM (inactive).

Turning to `O=c1c2ccccc2nc(-c2ccccc2)n1NC1OC(CO)C(O)C(O)C1O` (stereo not drawn), the GI50 with SK-MEL-28, in the assay on HOP-92, in the assay with CAKI-1, in the assay with COLO 205, in the assay with HOP-62 and in the assay with K562 was > 100 µM (inactive) each time. Also, the GI50 with SNB-75 is 85.3 µM (inactive); in the assay on UO-31, > 100 µM (inactive); in the assay on A549, > 100 µM (inactive); with ACHN, > 100 µM (inactive); in the assay on RPMI-8226 it was > 100 µM (inactive); with EKVX, > 100 µM (inactive).

For `CC(C)CC(N)C(=O)OCN1C(=O)C2C3C=CC(C2C1=O)C1C2C(=O)N(COC(=O)C(N)CC(C)C)C(=O)C2C31` (stereo not drawn), the GI50 is > 100 µM (inactive) in the assay with SK-MEL-28; > 100 µM (inactive) in the assay on HOP-92; > 100 µM (inactive) with CAKI-1; > 92.3 µM (inactive) with COLO 205; > 100 µM (inactive) in the assay on HOP-62; > 100 µM (inactive) in the assay with K562. Besides, the GI50 with SNB-75 was > 75 µM (inactive); in the assay on UO-31, > 100 µM (inactive); in the assay with A549, > 100 µM (inactive); in the assay with ACHN, > 100 µM (inactive); in the assay with RPMI-8226, > 48.2 µM (inactive); in the assay with EKVX, > 100 µM (inactive).

Regarding `O=C1[C@@H]2C(c3c(Cl)cccc3Cl)=NO[C@@H]2C(=O)N1c1ccc(Cc2ccc(N3C(=O)[C@H]4C(c5c(Cl)cccc5Cl)=NO[C@H]4C3=O)cc2)cc1`, the GI50 in the assay with SK-MEL-28, in the assay with HOP-92, in the assay on CAKI-1, in the assay with COLO 205, in the assay with HOP-62 and in the assay with K562 was > 100 µM (inactive) throughout. The GI50 with SNB-75 is > 100 µM (inactive); in the assay with UO-31, 90.6 µM (inactive); in the assay on A549, > 100 µM (inactive); in the assay with ACHN it was > 100 µM (inactive); in the assay on RPMI-8226, > 100 µM (inactive); with EKVX it was > 100 µM (inactive).

Consider `CSc1ccc(/C=C2/C[N+](C)(C)C/C(=C/c3ccc(SC)cc3)C2=O)cc1`, for which the GI50 in the assay on SK-MEL-28 is 8.09 µM (inactive); in the assay with HOP-92, 24.5 µM (inactive); with COLO 205 it was 5.18 µM (inactive); in the assay on K562, 5.47 µM (inactive); in the assay with SNB-75, 6.52 µM (inactive); with SR, 8.57 µM (inactive). Moreover, the GI50 was > 100 µM (inactive) with UO-31; 21.9 µM (inactive) in the assay on A549; 18 µM (inactive) with ACHN; 2.93 µM (inactive) with RPMI-8226; 19.1 µM (inactive) in the assay on EKVX.

Take `COc1ccc(OC)c2c1C(=O)C1CC1(Br)C2=O` (stereo not drawn): the GI50 in the assay with SK-MEL-28, in the assay on CAKI-1, with COLO 205, with HOP-62, in the assay on K562 and in the assay with UO-31 was > 100 µM (inactive) throughout. Also, the GI50 in the assay with A549 was > 100 µM (inactive); in the assay with ACHN, > 100 µM (inactive); in the assay on RPMI-8226, > 100 µM (inactive); in the assay with EKVX, 73.1 µM (inactive).

Consider `CCOC(=O)c1cc2c(OCc3ccccc3)c(OC)cc3c2c(n1)N(c1ccc(OC)cc1)C(C)C3` (stereo not drawn), for which the GI50 in the assay on SK-MEL-28 was > 50 µM (inactive); in the assay with HOP-92, 8.91 µM (inactive); in the assay with CAKI-1 it was 23.2 µM (inactive); in the assay with COLO 205, > 50 µM (inactive); in the assay with HOP-62, > 50 µM (inactive); with K562, > 50 µM (inactive). The GI50 with SNB-75 was > 50 µM (inactive); in the assay on SR, > 50 µM (inactive); in the assay on UO-31, > 50 µM (inactive); in the assay with A549, > 50 µM (inactive); in the assay on ACHN, > 50 µM (inactive); with RPMI-8226 it was 2.69 µM (inactive). For the same compound, the GI50 with EKVX is > 50 µM (inactive).

On to `O=c1c2ccccc2nc(-c2ccccc2)n1NC(=S)Nc1ccc(Cl)cc1[N+](=O)[O-]`, for which the GI50 was 21.7 µM (inactive) with SK-MEL-28; 55.1 µM (inactive) with HOP-92; > 100 µM (inactive) in the assay with CAKI-1; 51.5 µM (inactive) in the assay on COLO 205; 77.3 µM (inactive) in the assay with HOP-62; 50.9 µM (inactive) with K562. Besides, the GI50 in the assay on SNB-75 was 29.2 µM (inactive); in the assay on SR it was 33.3 µM (inactive); in the assay with UO-31, 42.2 µM (inactive); in the assay on A549, 67.3 µM (inactive); in the assay with ACHN, > 100 µM (inactive); in the assay on RPMI-8226, 80.5 µM (inactive).

Turning to `O=C(O)c1cc(=O)c2cc(C(=O)c3cccs3)c(Cl)c(Cl)c2o1`, the GI50 with SK-MEL-28, in the assay on HOP-92, in the assay with CAKI-1, in the assay on HOP-62, in the assay with K562 and in the assay on SNB-75 was > 100 µM (inactive) each time. Also, the GI50 with SR, in the assay on UO-31, in the assay on A549, in the assay on ACHN, with RPMI-8226 and in the assay with EKVX was > 100 µM (inactive) each time.

Turning to `COc1ccc(COCC(Cn2ccnc2)OCc2ccc(C(=O)O)cc2)cc1` (stereo not drawn), the GI50 in the assay with SK-MEL-28, in the assay with HOP-92, in the assay on CAKI-1, in the assay on COLO 205, in the assay on HOP-62 and with K562 was > 100 µM (inactive) each time. In addition, the GI50 in the assay with SNB-75 was 59.6 µM (inactive); in the assay with UO-31, > 100 µM (inactive); with A549, > 100 µM (inactive); in the assay on ACHN it was > 100 µM (inactive); in the assay with RPMI-8226 it was > 100 µM (inactive); with EKVX it was > 100 µM (inactive).

These data come from ChEMBL document CHEMBL1201862, “PubChem BioAssay data set” (2004).
